The results in this text go back to patent publication US11787762B2, “Tetralin and tetrahydroquinoline compounds as inhibitors of HIF-2alpha” (ARCUS BIOSCIENCES, INC., priority 2020, dated 2023).

The IC50 is the concentration that inhibits the measured activity by half. Read a low IC50 as greater potency in that assay.

Each structure is given as a SMILES string. Some results are limits rather than exact numbers.

The target of one assay is T1, HIF-2α (Homo sapiens, UniProt Q99814).
T1 construct: host or cells: 786-O cells stably transduced with Cignal Lenti HIF Luc Reporter (only the reporter was introduced, not HIF-2α)
T1 sequence (Q99814 whole entry): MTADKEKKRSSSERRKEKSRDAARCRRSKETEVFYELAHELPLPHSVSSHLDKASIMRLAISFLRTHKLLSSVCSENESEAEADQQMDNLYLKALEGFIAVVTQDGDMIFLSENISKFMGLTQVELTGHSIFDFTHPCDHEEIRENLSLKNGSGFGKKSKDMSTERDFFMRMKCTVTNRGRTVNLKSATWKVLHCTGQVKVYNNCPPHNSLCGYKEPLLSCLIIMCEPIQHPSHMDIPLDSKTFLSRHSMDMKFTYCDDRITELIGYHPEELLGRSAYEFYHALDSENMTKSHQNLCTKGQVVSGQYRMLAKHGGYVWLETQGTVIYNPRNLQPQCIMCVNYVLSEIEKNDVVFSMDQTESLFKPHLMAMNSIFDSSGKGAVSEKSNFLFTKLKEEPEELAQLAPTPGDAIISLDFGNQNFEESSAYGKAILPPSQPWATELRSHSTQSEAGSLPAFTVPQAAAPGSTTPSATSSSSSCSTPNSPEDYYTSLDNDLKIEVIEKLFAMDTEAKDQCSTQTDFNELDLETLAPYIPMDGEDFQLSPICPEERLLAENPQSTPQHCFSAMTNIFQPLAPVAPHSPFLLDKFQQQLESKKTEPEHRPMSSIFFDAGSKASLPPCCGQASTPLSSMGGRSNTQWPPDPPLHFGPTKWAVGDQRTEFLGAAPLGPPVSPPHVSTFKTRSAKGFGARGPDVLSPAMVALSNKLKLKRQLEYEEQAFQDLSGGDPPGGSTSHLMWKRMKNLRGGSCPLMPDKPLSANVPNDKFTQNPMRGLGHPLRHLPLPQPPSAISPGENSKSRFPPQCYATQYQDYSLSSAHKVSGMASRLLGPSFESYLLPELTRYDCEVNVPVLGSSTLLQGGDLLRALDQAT
As to the kind of experiment: HIF-2α luciferase reporter assay in HIF-Luc-786-O cells. Format: cell-based. To be noted: Table 1, 20 hours incubation. As for the experimental part: Generation of HIF-2α Luciferase 786-O Cell Line:
Stable cell lines were generated by transducing 786-O cells (ATCC, CRL-1932) with Cignal Lenti HIF Luc Reporter lentivirus (CLS-007 L, Qiagen) according to the manufacturer's guidelines. In brief, 0.3×10^6 786-0 cells were transduced with lentivirus at a Multiplicity of Infection (MOI) of 25 for 24 hours. After transduction, cells were replenished with fresh RPMI 1640 Medium (Cat. No. 11875085, Thermo Fisher,) supplemented with 10% FBS (Cat. No. A3160502, Gibco), 2 mM GlutaMax (Cat. No. 35050-061, Invitrogen) and 100 units of penicillin and 100 μg of streptomycin/mL (Cat. No 15070063, Thermo Fisher) for another 24 hours. Antibiotic selection was performed in cell media containing 4 μg/mL of Puromycin. After 7 days of antibiotic selection, stable pools of surviving cells were expanded and used in a luciferase reporter assay.
HIF-2α Luciferase Reporter Assay:
On day one, 20 uL of HIF-Luc-786-0 cells in OptiMem (Cat. No. 31985088, Thermo Fisher) were seeded into each well of a 384 well white opaque plate (Corning 3570) and incubated at 37° C. and 5% CO2. Twenty microliters of 2× test compounds in OptiMem were added to cells after 4 hours of incubation. Final assay conditions comprised 20,000 cells per well in 1% DMSO with test compound concentrations ranging from 50 uM to 0 uM. After 20 hours incubation at 37° C. and 5% CO2, luciferase activity was determined using ONE-Glo Luciferase Assay Reagent (E6110, Promega) following the manufacture's recommended procedure. Briefly, 40 uL of ONE-Glo luciferase reagents were added to each well and luciferase signals were measured using an Envision 2102 Multilabel Reader. Percentage maximum activity in each test well was calculated based on DMSO (maximum activity) and no cell control wells (baseline activity). The IC50 values of the test compounds were determined from compound dose response curves fitted using a standard four parameter fit equation.
(A reporter such as luciferase makes a cellular process visible.)
For `O=[N+]([O-])c1cc(S(=O)(=O)C(F)(F)F)ccc1N1CCOc2ccc(Cl)cc21` [Example 82], the IC50 is > 1000 nM.

Still in this assay, the particulars now being: Table 3, 20 hours incubation.
Consider `N#Cc1cc(F)cc2c1[C@@H](c1ccc(-c3cccn4ccnc34)c3c1CC(F)(F)[C@H]3O)CC[C@@H]2F` [Example 245, (5S,8R)-8-[(1S)-2,2-difluoro-1-hydroxy-7-{imidazo[1,2-a]pyridin-8-yl}-2,3-dihydro-1H-inden-4-yl]-3,5-difluoro-5,6,7,8-tetrahydronaphthalene-1-carbonitrile], for which the IC50 fell in the range of 100 to 1000 nM.

As for `N#Cc1cc(F)cc2c1[C@@H](c1ccc(-c3cccc4ncsc34)c3c1CC(F)(F)[C@H]3O)CC[C@@H]2F` [Example 189, (5S,8R)-8-[(1S)-7-(1,3-benzothiazol-7-yl)-2,2-difluoro-1-hydroxy-1,3-dihydroinden-4-yl]-3,5-difluoro-5,6,7,8-tetrahydronaphthalene-1-carbonitrile], the IC50 was < 100 nM.

With `N#Cc1cc(F)cc2c1[C@@H](c1ccc(-c3scnc3CO)c3c1CC(F)(F)[C@H]3O)CC[C@@H]2F` [Example 191, (5S,8R)-8-[(1S)-2,2-difluoro-1-hydroxy-7-[4-(hydroxymethyl)-1,3-thiazol-5-yl]-1,3-dihydroinden-4-yl]-3,5-difluoro-5,6,7,8-tetrahydronaphthalene-1-carbonitrile], the half-maximal inhibitory concentration (IC50) was < 100 nM.

As to `Cc1ncccc1-c1ncc([C@H]2CC[C@H](F)c3cc(F)cc(C#N)c32)c2c1[C@H](O)[C@H](F)C2` [Example 227, (5S,8S)-3,5-difluoro-8-[(6R,7S)-6-fluoro-7-hydroxy-1-(2-methylpyridin-3-yl)-5H16H17H-cyclopenta[c]pyridin-4-yl]-5,6,7,8-tetrahydronaphthalene-1-carbonitrile], the IC50 was in the range of 100 to 1000 nM.

Take `Cn1c(-c2ccc([C@H]3CC[C@H](F)c4cc(F)cc(C#N)c43)c3c2[C@H](O)C(F)(F)C3)cccc1=O` [Example 171, (5S,8R)-8-[(1S)-2,2-difluoro-1-hydroxy-7-(1-methyl-6-oxopyridin-2-yl)-1,3-dihydroinden-4-yl]-3,5-difluoro-5,6,7,8-tetrahydronaphthalene-1-carbonitrile]: the IC50 was < 100 nM.

For `CS(=O)(=O)c1ccc([C@H]2CC[C@H](F)c3cc(F)cc(C#N)c32)c2c1[C@H](O)[C@@](F)(C#N)C2` [Example 247, (5S,8R)-8-[(1S,2S)-2-cyano-2-fluoro-1-hydroxy-7-methylsulfonyl-1,3-dihydroinden-4-yl]-3,5-difluoro-5,6,7,8-tetrahydronaphthalene-1-carbonitrile], the IC50 was < 100 nM.

`N#Cc1cc(F)cc2c1[C@@H](c1ccc(-c3cccc4c3CC(=O)N4)c3c1CC(F)(F)[C@H]3O)CC[C@@H]2F` [Example 164, (5S,8R)-8-[(1S)-2,2-difluoro-1-hydroxy-7-(2-oxo-2,3-dihydro-1H-indol-4-yl)-2,3-dihydro-1H-inden-4-yl]-3,5-difluoro-5,6,7,8-tetrahydronaphthalene-1-carbonitrile] registered an IC50 of 100 to 1000 nM.

For `Cn1cnc(-c2ccc([C@H]3CC[C@H](F)c4cc(F)cc(C#N)c43)c3c2[C@H](O)C(F)(F)C3)n1` [Example 182, (5S,8R)-8-[(1S)-2,2-difluoro-1-hydroxy-7-(1-methyl-1,2,4-triazol-3-yl)-1,3-dihydroinden-4-yl]-3,5-difluoro-5,6,7,8-tetrahydronaphthalene-1-carbonitrile], the half-maximal inhibitory concentration (IC50) was 100 to 1000 nM.

Turning to `Cc1nc(N)ncc1-c1ccc([C@H]2CC[C@H](F)c3cc(F)cc(C#N)c32)c2c1[C@H](O)C(F)(F)C2` [Example 168, (5S,8R)-8-[(1S)-7-(2-amino-4-methylpyrimidin-5-yl)-2,2-difluoro-1-hydroxy-1,3-dihydroinden-4-yl]-3,5-difluoro-5,6,7,8-tetrahydronaphthalene-1-carbonitrile], the IC50 was < 100 nM.

For `Cn1nccc1-c1c(F)cc([C@H]2CC[C@H](F)c3cc(F)cc(C#N)c32)c2c1[C@H](O)[C@H](F)C2` [Example 210, (5S,8R)-8-[(1S,2R)-2,6-difluoro-1-hydroxy-7-(2-methylpyrazol-3-yl)-2,3-dihydro-1H-inden-4-yl]-3,5-difluoro-5,6,7,8-tetrahydronaphthalene-1-carbonitrile], the IC50 is < 100 nM.

With `N#Cc1cc(F)cc2c1[C@@H](c1ccc(-c3cccc4ncoc34)c3c1CC(F)(F)[C@H]3O)CC[C@@H]2F` [Example 228, (5S,8R)-8-[(1S)-7-(1,3-benzoxazol-7-yl)-2,2-difluoro-1-hydroxy-1,3-dihydroinden-4-yl]-3,5-difluoro-5,6,7,8-tetrahydronaphthalene-1-carbonitrile], the IC50 was < 100 nM.

On to `CS(=O)(=O)c1c(C#N)cc([C@H]2CC[C@H](F)c3cc(F)cc(C#N)c32)c2c1[C@H](O)[C@H](F)C2` [Example 214, (5S,8R)-8-[(1S,2R)-6-Cyano-2-fluoro-1-hydroxy-7-methylsulfonyl-2,3-dihydro-1H-inden-4-yl]-3,5-difluoro-5,6,7,8-tetrahydronaphthalene-1-carbonitrile], for which the IC50 was 100 to 1000 nM.

With `N#Cc1cc(F)cc2c1[C@@H](c1ccc(Nc3ccccn3)c3c1CC(F)(F)[C@H]3O)CC[C@@H]2F` [Example 200, (5S,8R)-8-[(1S)-2,2-difluoro-1-hydroxy-7-(pyridin-2-ylamino)-1,3-dihydroinden-4-yl]-3,5-difluoro-5,6,7,8-tetrahydronaphthalene-1-carbonitrile], the IC50 is 100 to 1000 nM.

As for `Cc1[nH]c(=O)ccc1-c1ccc([C@H]2CC[C@H](F)c3cc(F)cc(C#N)c32)c2c1[C@H](O)C(F)(F)C2` [Example 161, (5S,8R)-8-[(1S)-2,2-difluoro-1-hydroxy-7-(2-methyl-6-oxo-1H-pyridin-3-yl)-1,3-dihydroinden-4-yl]-3,5-difluoro-5,6,7,8-tetrahydronaphthalene-1-carbonitrile], the IC50 was in the range of 100 to 1000 nM.

In the case of `N#Cc1cc(F)cc2c1[C@@H](c1ccc(-n3ccnc3)c3c1CC(F)(F)[C@H]3O)CC[C@@H]2F` [Example 199, (5S,8R)-8-[(1S)-2,2-difluoro-1-hydroxy-7-imidazol-1-yl-1,3-dihydroinden-4-yl]-3,5-difluoro-5,6,7,8-tetrahydronaphthalene-1-carbonitrile], the IC50 is < 100 nM.

Take `N#Cc1cc(F)cc2c1[C@@H](c1ccc(C(=O)O)c3c1CC(F)(F)[C@H]3O)CC[C@@H]2F` [Example 223, (3S)-7-[(1R,4S)-8-cyano-4,6-difluoro-1,2,3,4-tetrahydronaphthalen-1-yl]-2,2-difluoro-3-hydroxy-1,3-dihydroindene-4-carboxylic acid]: the half-maximal inhibitory concentration (IC50) fell in the range of 100 to 1000 nM.

In the case of `N#Cc1cc(F)cc2c1[C@@H](c1ccc(-c3cncnc3N)c3c1CC(F)(F)[C@H]3O)CC[C@@H]2F` [Example 177, (5S,8R)-8-[(1S)-7-(4-aminopyrimidin-5-yl)-2,2-difluoro-1-hydroxy-1,3-dihydroinden-4-yl]-3,5-difluoro-5,6,7,8-tetrahydronaphthalene-1-carbonitrile], the IC50 was < 100 nM.

As for `N#Cc1cc(F)cc2c1[C@@H](c1ccc(-c3cnc4cnccn34)c3c1CC(F)(F)[C@H]3O)CC[C@@H]2F` [Example 234, (5S,8R)-8-[(1S)-2,2-difluoro-1-hydroxy-7-imidazo[1,2-a]pyrazin-3-yl-1,3-dihydroinden-4-yl]-3,5-difluoro-5,6,7,8-tetrahydronaphthalene-1-carbonitrile], the concentration for half-maximal inhibition (IC50) is < 100 nM.
